Tests used:
[1] = tested on: MASLD mice (60 kcal% fat diet); test: High fat diet-induced MASLD model in mice; format: in vivo, C57BL/6J mice
Protocol: For pharmacology experiments, mice were divided into five groups (n = 8 per group): control group (C), B6 10 mg kg^−1 group [B6 (10)], high fat diet group (H), HFD + 5 mg kg^−1 B6 group [HB6 (5)], and HFD + 10 mg kg^−1 B6 group [HB6 (10). The 60 kcal% fat diet (MD12033) used for establishing the MASLD model was purchased from Medicience (Yangzhou, China). The C and B6 (10) groups were fed a chow diet for 12 weeks, followed by gavage administration of vehicle and 10 mg kg^−1 B6 for the subsequent four weeks, respectively. The H, HB6 (5) and HB6 (10) groups were fed a 60 kcal% fat diet for 12 weeks, followed by gavage administration of vehicle, 5 mg kg^−1 B6 and 10 mg kg^−1 B6 for the subsequent four weeks, respectively.
TG, FFA, and TC kits were purchased from Solarbio (Beijing, China). The liver tissues from mice were homogenized and processed according to the instructions. […]
ALT, AST, ALP, TG, NEFA, CHO, LDL‐C, and HDL‐C were assessed using a Hitachi 7020 automatic analyzer (Hitachi, Tokyo, Japan). […]
Food intake, locomotor VO2, VCO2, and heat production were measured by the TSE system, and RER were calculated using the manufacturer's system software.
(§1) Western blot was carried out as described.^[ [49] ^] In brief, samples were lysed with a lysis buffer. The same quantity of total proteins (40–60 µg) from each sample was separated on SDS‐PAGE followed by transfer onto a nitrocellulose filter membrane and incubation with the indicated antibodies. After incubation with secondary antibodies, the protein bands were visualized using a chemiluminescence imaging system. All samples in the same group were processed simultaneously.
(§2) Cells and liver tissues were extracted for total RNA. A reverse transcription kit was used to synthesize cDNA. qRT‐PCR was performed with the primers listed in Table S1 (Supporting Information) using the SYBR green PCR master mix. The coding sequence of the target gene was found in NCBI, and Primer3 (v.0.4.0) was used to design amplification primers. The results were normalized by β‐actin in the corresponding sample.

HDAC4 = molecular target: T1, HDAC4 (Homo sapiens, UniProt P56524); test: In vitro HDACs inhibition fluorescence assay, HDAC4; format: biochemical; conditions: mean ± SEM
T1 construct: purchased BPS Bioscience
T1 sequence (P56524 whole entry): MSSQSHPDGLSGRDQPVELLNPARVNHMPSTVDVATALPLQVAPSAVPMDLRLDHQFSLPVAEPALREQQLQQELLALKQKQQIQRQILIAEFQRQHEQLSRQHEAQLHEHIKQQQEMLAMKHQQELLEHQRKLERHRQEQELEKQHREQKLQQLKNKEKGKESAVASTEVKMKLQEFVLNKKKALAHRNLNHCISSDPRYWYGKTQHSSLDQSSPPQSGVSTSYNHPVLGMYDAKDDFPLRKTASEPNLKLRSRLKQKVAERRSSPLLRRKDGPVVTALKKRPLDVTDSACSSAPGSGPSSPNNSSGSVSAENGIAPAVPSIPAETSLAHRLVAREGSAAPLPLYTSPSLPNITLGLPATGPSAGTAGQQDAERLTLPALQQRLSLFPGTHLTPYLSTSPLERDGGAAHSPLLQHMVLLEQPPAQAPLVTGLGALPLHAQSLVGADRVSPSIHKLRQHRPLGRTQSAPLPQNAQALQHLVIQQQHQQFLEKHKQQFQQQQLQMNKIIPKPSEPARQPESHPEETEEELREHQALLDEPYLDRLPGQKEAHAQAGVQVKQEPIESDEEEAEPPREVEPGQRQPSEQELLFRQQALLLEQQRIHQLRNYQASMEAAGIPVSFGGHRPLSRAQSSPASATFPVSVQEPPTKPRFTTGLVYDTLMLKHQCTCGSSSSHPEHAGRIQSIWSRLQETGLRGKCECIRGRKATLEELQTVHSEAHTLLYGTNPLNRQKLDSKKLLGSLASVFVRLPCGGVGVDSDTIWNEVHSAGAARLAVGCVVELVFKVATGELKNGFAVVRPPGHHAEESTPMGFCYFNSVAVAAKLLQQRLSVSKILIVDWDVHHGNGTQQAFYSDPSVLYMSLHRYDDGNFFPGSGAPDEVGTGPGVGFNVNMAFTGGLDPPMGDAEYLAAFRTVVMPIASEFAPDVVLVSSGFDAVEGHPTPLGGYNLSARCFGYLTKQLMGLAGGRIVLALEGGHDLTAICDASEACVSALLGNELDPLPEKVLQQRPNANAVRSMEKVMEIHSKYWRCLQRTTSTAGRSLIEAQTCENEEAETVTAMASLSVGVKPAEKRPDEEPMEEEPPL
Protocol: (§3) In Vitro HDACs Inhibition Fluorescence Assay: For the inhibitory activity against HDAC1‐10, enzymes were also procured from BPS Bioscience. The in vitro […] inhibition assays were conducted following the established method described previously.^[ [45] ^] The working concentrations of HDAC1‐10 were 4 × 10^−9 M. The fluorogenic substrate of HDAC1, 2, 3, and 6 was Boc‐Lys (acetyl)‐AMC, and the substrate of HDAC4, 5, 7, 8, 9, and 10 was Boc‐Lys (trifluoroacetyl) AMC. The developer solution consists of 30 mg mL^−1 trypsin and 5 × 10^−6 M TSA. A standing period of 30 min was sufficient before assessing the fluorescence intensity.

[2] = tested on: SREBP1c, FASN, SCD1, CPT1A, PGC1α, PPARα expression in AML12 cells; test: Protein and mRNA expression of DNL and fatty acid oxidation genes in FFA-treated AML12 cells; format: cell-based
Protocol: as §1, §2

[3] = tested on: SREBP1c, FASN, SCD1, CPT1A, PGC1α, PPARα, p-AMPKα (Thr172), LKB1 in HepG2 cells; test: Protein and mRNA expression and AMPKα phosphorylation in FFA-induced HepG2 cells; format: cell-based, human
Protocol: For the lipid accumulation experiment, HepG2 cells were incubated for 24 h in DMEM containing 0.5 × 10^−3 M of a mixture of free fatty acids (FFA; oleic acid: palmitic acid = 2:1) and 1% FFA‐free bovine serum albumin to induce intracellular lipid accumulation, together with B6 treatment.
as §1, §2

[4] = Tissue distribution study in ICR mice (i.p.); format: in vivo; conditions: i.p. at 5 mg/kg; 0.17, 0.5 and 1 h
Protocol: For the distribution experiment, compound was dissolved in solution containing 10% DMAC, 40% PEG‐400, and 50% water and was delivered to […] male ICR mice by intraperitoneal injection (i.p.) at a dose of 5 mg kg^−1. Then three […] were sacrificed for each 0.17, 0.5, and 1 h time period. Subsequently, the heart, liver, spleen, lung, and kidney were immediately collected. Blood samples were obtained via cardiac puncture and processed by centrifugation to retrieve the plasma fraction. Tissues were flushed with normal saline, dried, weighed, and then homogenized in 5 mL methanol. Tissue samples were centrifuged at 4000 g, and supernatants were stored in freezer at −80 °C before analyzing. 20 µL of the reconstitution solution were analyzed via LC‐MS system. The 8‐week‐old male C57BL/6J mice were provided by GemPharmatech (Nanjing, China).

HDAC7 = molecular target: T2, HDAC7 (Homo sapiens, UniProt Q8WUI4); test: In vitro HDACs inhibition fluorescence assay, HDAC7; format: biochemical; conditions: mean ± SEM
T2 construct: purchased BPS Bioscience
T2 sequence (Q8WUI4 whole entry): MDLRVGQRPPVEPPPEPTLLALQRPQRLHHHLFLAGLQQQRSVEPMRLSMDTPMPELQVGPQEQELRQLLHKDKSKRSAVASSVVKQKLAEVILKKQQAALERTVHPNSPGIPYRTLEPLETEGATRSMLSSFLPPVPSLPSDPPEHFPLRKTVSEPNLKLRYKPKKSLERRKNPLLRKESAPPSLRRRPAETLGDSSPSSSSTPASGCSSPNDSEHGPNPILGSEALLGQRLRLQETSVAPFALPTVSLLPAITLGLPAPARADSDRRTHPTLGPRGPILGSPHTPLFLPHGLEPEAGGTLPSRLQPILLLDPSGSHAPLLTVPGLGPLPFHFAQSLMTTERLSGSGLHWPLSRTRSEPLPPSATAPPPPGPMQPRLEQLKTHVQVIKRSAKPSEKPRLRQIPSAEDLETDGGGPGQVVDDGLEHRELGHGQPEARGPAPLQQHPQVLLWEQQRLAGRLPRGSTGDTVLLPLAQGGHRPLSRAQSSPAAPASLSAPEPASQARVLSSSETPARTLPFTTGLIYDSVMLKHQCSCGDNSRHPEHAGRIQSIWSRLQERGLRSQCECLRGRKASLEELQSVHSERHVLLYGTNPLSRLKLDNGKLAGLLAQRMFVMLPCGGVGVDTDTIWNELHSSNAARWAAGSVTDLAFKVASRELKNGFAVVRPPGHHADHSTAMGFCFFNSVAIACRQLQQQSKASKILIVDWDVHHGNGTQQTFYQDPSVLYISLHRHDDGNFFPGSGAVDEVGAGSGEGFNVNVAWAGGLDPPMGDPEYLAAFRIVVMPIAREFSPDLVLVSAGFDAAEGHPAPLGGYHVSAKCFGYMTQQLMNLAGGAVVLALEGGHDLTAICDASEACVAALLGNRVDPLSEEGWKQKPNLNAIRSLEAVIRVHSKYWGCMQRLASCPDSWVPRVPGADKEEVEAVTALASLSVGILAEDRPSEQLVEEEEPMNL
Protocol: as §3

HDAC5 = molecular target: T3, HDAC5 (Homo sapiens, UniProt Q9UQL6); test: In vitro HDACs inhibition fluorescence assay, HDAC5; format: biochemical; conditions: mean ± SEM
T3 construct: purchased BPS Bioscience
T3 sequence (Q9UQL6 whole entry): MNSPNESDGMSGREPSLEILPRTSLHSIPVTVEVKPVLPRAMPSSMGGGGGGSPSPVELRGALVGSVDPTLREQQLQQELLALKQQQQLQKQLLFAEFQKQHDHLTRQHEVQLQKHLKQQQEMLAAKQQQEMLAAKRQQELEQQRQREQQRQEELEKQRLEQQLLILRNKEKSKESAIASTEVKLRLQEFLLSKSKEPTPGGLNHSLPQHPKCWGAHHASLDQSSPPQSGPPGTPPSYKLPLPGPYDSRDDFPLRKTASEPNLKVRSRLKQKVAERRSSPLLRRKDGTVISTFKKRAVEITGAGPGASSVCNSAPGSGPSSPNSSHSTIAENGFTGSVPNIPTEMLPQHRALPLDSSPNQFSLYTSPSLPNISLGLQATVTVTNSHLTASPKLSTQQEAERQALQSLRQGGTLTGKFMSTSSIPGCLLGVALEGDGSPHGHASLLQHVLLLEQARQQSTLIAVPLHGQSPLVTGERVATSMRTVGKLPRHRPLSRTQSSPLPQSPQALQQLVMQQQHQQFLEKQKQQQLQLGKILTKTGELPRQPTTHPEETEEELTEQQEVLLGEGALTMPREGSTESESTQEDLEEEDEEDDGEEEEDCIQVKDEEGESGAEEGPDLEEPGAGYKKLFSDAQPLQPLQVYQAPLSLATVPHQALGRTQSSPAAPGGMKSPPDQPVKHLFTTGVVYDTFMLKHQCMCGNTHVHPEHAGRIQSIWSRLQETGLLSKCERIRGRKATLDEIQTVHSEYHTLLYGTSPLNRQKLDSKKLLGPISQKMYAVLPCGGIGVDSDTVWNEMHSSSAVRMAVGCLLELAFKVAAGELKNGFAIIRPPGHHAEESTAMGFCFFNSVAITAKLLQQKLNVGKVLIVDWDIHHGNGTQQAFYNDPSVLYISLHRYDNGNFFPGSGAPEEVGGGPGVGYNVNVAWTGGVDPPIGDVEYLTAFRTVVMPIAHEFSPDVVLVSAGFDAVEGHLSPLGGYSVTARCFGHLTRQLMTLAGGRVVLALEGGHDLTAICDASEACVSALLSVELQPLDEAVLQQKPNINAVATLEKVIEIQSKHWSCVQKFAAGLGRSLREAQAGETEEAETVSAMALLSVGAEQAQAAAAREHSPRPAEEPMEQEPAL
Protocol: as §3

SIRT2 = SIRT2 (Homo sapiens, UniProt Q8IXJ6); test: SIRT2 inhibition fluorescence assay (AcIQF substrate); format: biochemical
Chain of SIRT2 (Q8IXJ6 whole entry, species assumed): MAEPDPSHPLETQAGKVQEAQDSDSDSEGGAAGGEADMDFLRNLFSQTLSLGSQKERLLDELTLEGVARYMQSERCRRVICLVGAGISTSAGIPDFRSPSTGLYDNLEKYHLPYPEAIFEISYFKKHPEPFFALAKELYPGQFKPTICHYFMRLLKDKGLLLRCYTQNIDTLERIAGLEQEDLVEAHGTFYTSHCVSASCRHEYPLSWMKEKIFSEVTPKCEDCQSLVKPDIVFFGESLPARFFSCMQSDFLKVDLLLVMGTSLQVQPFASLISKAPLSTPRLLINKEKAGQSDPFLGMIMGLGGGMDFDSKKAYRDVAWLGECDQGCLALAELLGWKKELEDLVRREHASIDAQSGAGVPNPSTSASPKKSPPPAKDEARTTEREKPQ
Protocol: For the inhibitory activity against SIRT2, substrate is the AcIQF.^[ [46] ^] Dilution series compound was incubated with the SIRT2 enzyme ([…]) for 30 min at 25 °C. Then AcIQF (5 × 10^−3 M) and NAD^+ ([…]) were added to start the reaction at 25 °C. 2 h later, […] stop solution (containing ≈2 U mL^−1 trypsin and 4 × 10^−3 M nicotinamide) was added to stop the reactions. Then the mixture was incubated for 30 min, and the fluorescence intensity was assessed.

[5] = FFA-induced HepG2 cells, 0.5 × 10^−6 M, 24 h
[6] = FFA-treated HepG2 cells, 0.5 × 10^−6 M, 24 h

CCCCCOCCCCCNNC(=O)c1ccc(CNC(=O)c2ccccc2)cc1 [B6]
body weight, chow diet (C group vs B6 (10) group) ([1]; 10 mg kg^−1 p.o., chow diet): no significant differences in body weight
body weight of high fat diet mice ([1]; 5 or 10 mg kg^−1 p.o., final 4 weeks, dose-dependent): reduction in body weight
blood lipids NEFA, CHO, LDL-C ([1]; HFD mice): reduce the elevated levels of blood lipids
glucose tolerance test and insulin tolerance test ([1]; HFD mice): improved glucose tolerance and insulin resistance
phosphorylation of AMPKα at Thr172 in mouse liver ([1]; HFD mice): restores the phosphorylation level
serum ALT, AST and ALP (liver damage) ([1]; HFD mice): alleviate liver damage
serum HDL-C ([1]; HFD mice): no significant effect
liver size and weight, body fat mass ([1]; HFD mice, 5 or 10 mg kg^−1 p.o.): effectively controlled
hepatic lipid content (TG, FFA, TC) ([1]; HFD mice, 5 or 10 mg kg^−1 p.o., dose-dependent): reduction in hepatic lipid content
O2 consumption (VO2), CO2 production (VCO2) and heat ([1]; HFD mice, compared to H group): increase
liver protein and mRNA levels of CPT1A, PGC1α and PPARα ([1]; HFD mice, compared to H group): restored
respiratory exchange ratio (RER) ([1]; HFD mice, metabolic cages): slight increase in RER value
liver protein and mRNA expression of SREBP1c, FASN and SCD1 ([1]; HFD mice, dose-dependent): downregulation
food intake of mice ([1]; mouse, in vivo): no effect on food intake
IC50 (HDAC4): > 10 µM
FFA-suppressed protein and mRNA expression of CPT1A, PGC1α and PPARα [2]: partially restored
FFA-upregulated protein and mRNA expression of SREBP1c, FASN and SCD1 ([2]; 0.5 × 10^−6 M, 24 h): reversed
LKB1 mRNA levels ([3]; FFA-induced HepG2 cells): increase in LKB1 mRNA levels
mRNA levels of CaMKKβ and TAK1 ([3]; FFA-induced HepG2 cells): did not exhibit significant changes
protein and mRNA expression of CPT1A, PGC1α and PPARα [3, 5]: upregulation of protein and mRNA expression
protein and mRNA expression of SREBP1c, FASN and SCD1 [3, 5]: reduction of protein and mRNA expression
phosphorylation of AMPKα at Thr172 [3, 6]: restores the phosphorylation level
protein expression of LKB1 and p-LKB1 [3, 6]: increase LKB1 expression
tissue distribution (blood, heart, liver, spleen, lung, kidney) [4]: highest concentrations observed in the liver and kidneys
IC50 (HDAC7): > 10 µM
IC50 (HDAC5): > 10 µM
inhibitory activity against other HDAC subtypes, including SIRT2 (SIRT2; at a concentration of 10 × 10^−6 M): no significant inhibitory activity
IC50 (SIRT2; mean ± SEM): > 10 µM
